Source: patent US11859235B2, “Sensor, detection method, reagent and kit” (priority 2020, dated 2024)

System: acetylcholinesterase
Assay: acetylcholine decomposition by acetylcholinesterase in a mixed system, monitored as pH change rate
Format: biochemical
Conditions: addition of limonene to the mixed system of acetylcholine and acetylcholinesterase; FIG. 3
From the text: The reaction of the above formula (1) is a chemical reaction in which acetylcholine acts as a substrate and acetylcholinesterase acts as an enzyme. In general, it is known that a chemical reaction using an enzyme is inhibited by a specific chemical substance for each enzyme, and the reaction rate is reduced or the reaction is stopped. The chemical substance is hereinafter referred to as an “inhibitor”. Here, in the mixed system of acetylcholinesterase and acetylcholine shown in FIG. 2A, when the inhibitor starts to be contained from time t, the cumulative amount of acetylcholine decomposition product after time t changes, that is, the slope of the graph decreases (see FIG. 2B). Therefore, by monitoring the decomposition rate of acetylcholine in the mixed system, it is possible to detect whether or not an inhibitor is present in the mixed system.
The target substance to be detected by the sensor according to the present embodiment is an inhibitor against the acetylcholine decomposition reaction of acetylcholinesterase. Examples of this inhibitor include limonene. […] Examples of the inhibitor other than limonene against the acetylcholine decomposition reaction of acetylcholinesterase include terpenoids such as ambrein and pinene, flavonoids such as luteolin, alkaloids such as galantamine, and glycosides such as Cynatroside A.

C=C(C)[C@H]1CC=C(C)CC1 [limonene]
effect on the pH change rate of the mixed system of acetylcholine and acetylcholinesterase (inhibitory effect on the acetylcholine decomposition reaction): reduces the pH change rate of the mixed system
